EP3002287B1, “Thiochromeno[2,3-c]quinolin-12-one derivatives and their use as topoisomerase inhibitors” (National Defense Medical Center, priority 2014, dated 2016)

Key:
DU-145 [1] = assay: MTT assay for cell cytotoxicity; assay type: cell-based, human; settings: Homo sapiens, 72 h, at least three independent experiments, read-out: MTT assay (IC50 ± SD) DU-145
Method in brief: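 Seeded cells pre-incubated 24 h, then treated 72 h with 0.15–15 µM compound in RPMI-1640/5% FBS at 37 °C. MTT (1 mg/mL) added for 4 h, formazan dissolved in DMSO, absorbance at 560 nm; IC50 from mean of ≥3 independent experiments.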

PC-3 = assay: MTT assay for cell cytotoxicity; assay type: cell-based, human; settings: Homo sapiens, 72 h, at least three independent experiments, read-out: MTT assay (IC50 ± SD) PC-3
CCRF-CEM = assay: NCI in vitro 60-cell drug screen (SRB assay); assay type: cell-based; settings: CCRF-CEM (Leukemia); 10^-5 molar concentration; 48 hours
HL-60(TB) = assay: NCI in vitro 60-cell drug screen (SRB assay); assay type: cell-based; settings: HL-60(TB) (Leukemia); 10^-5 molar concentration; 48 hours
SR = assay: NCI in vitro 60-cell drug screen (SRB assay); assay type: cell-based; settings: SR (Leukemia); 10^-5 molar concentration; 48 hours
A549/ATCC = assay: NCI in vitro 60-cell drug screen (SRB assay); assay type: cell-based; settings: A549/ATCC (Non-small cell lung cancer); 10^-5 molar concentration; 48 hours
EKVX = assay: NCI in vitro 60-cell drug screen (SRB assay); assay type: cell-based; settings: EKVX (Non-small cell lung cancer); 10^-5 molar concentration; 48 hours
NCI-H226 = assay: NCI in vitro 60-cell drug screen (SRB assay); assay type: cell-based; settings: NCI-H226 (Non-small cell lung cancer); 10^-5 molar concentration; 48 hours
NCI-H322M = assay: NCI in vitro 60-cell drug screen (SRB assay); assay type: cell-based; settings: NCI-H322M (Non-small cell lung cancer); 10^-5 molar concentration; 48 hours
HCT-116 = assay: NCI in vitro 60-cell drug screen (SRB assay); assay type: cell-based; settings: HCT-116 (Colon cancer); 10^-5 molar concentration; 48 hours
HT29 = assay: NCI in vitro 60-cell drug screen (SRB assay); assay type: cell-based; settings: HT29 (Colon cancer); 10^-5 molar concentration; 48 hours
KM12 = assay: NCI in vitro 60-cell drug screen (SRB assay); assay type: cell-based; settings: KM12 (Colon cancer); 10^-5 molar concentration; 48 hours
SF-295 = assay: NCI in vitro 60-cell drug screen (SRB assay); assay type: cell-based; settings: SF-295 (CNS cancer); 10^-5 molar concentration; 48 hours
SF-539 = assay: NCI in vitro 60-cell drug screen (SRB assay); assay type: cell-based; settings: SF-539 (CNS cancer); 10^-5 molar concentration; 48 hours
MDA-MB-435 = assay: NCI in vitro 60-cell drug screen (SRB assay); assay type: cell-based; settings: MDA-MB-435 (Melanoma); 10^-5 molar concentration; 48 hours
IGROV1 = assay: NCI in vitro 60-cell drug screen (SRB assay); assay type: cell-based; settings: IGROV1 (Ovarian cancer); 10^-5 molar concentration; 48 hours
OVCAR-4 = assay: NCI in vitro 60-cell drug screen (SRB assay); assay type: cell-based; settings: OVCAR-4 (Ovarian cancer); 10^-5 molar concentration; 48 hours
CAKI-1 = assay: NCI in vitro 60-cell drug screen (SRB assay); assay type: cell-based; settings: CAKI-1 (Renal cancer); 10^-5 molar concentration; 48 hours
SN12C = assay: NCI in vitro 60-cell drug screen (SRB assay); assay type: cell-based; settings: SN12C (Renal cancer); 10^-5 molar concentration; 48 hours
TK-10 = assay: NCI in vitro 60-cell drug screen (SRB assay); assay type: cell-based; settings: TK-10 (Renal cancer); 10^-5 molar concentration; 48 hours
DU-145 [2] = assay: NCI in vitro 60-cell drug screen (SRB assay); assay type: cell-based; settings: DU-145 (Prostate cancer); 10^-5 molar concentration; 48 hours
MDA-MB-231/ATCC = assay: NCI in vitro 60-cell drug screen (SRB assay); assay type: cell-based; settings: MDA-MB-231/ATCC (Breast cancer); 10^-5 molar concentration; 48 hours
BT-549 = assay: NCI in vitro 60-cell drug screen (SRB assay); assay type: cell-based; settings: BT-549 (Breast cancer); 10^-5 molar concentration; 48 hours
MDA-MB-486 = assay: NCI in vitro 60-cell drug screen (SRB assay); assay type: cell-based; settings: MDA-MB-486 (Breast cancer); 10^-5 molar concentration; 48 hours
SK-OV-3 = assay: NCI in vitro 60-cell drug screen (SRB assay); assay type: cell-based; settings: SK-OV-3 (Ovarian cancer); 10^-5 molar concentration; 48 hours
A498 = assay: NCI in vitro 60-cell drug screen (SRB assay); assay type: cell-based; settings: A498 (Renal cancer); 10^-5 molar concentration; 48 hours

Row | Compound | IC50 (DU-145 [1]) [µM] | IC50 (PC-3) [µM] | Growth percent (CCRF-CEM) [%] | Growth percent (HL-60(TB)) [%] | Growth percent (SR) [%] | Growth percent (A549/ATCC) [%] | Growth percent (NCI-H226) [%] | Growth percent (NCI-H322M) [%] | Growth percent (HCT-116) [%] | Growth percent (HT29) [%] | Growth percent (KM12) [%] | Growth percent (SF-295) [%] | Growth percent (SF-539) [%] | Growth percent (MDA-MB-435) [%] | Growth percent (IGROV1) [%] | Growth percent (OVCAR-4) [%] | Growth percent (CAKI-1) [%] | Growth percent (SN12C) [%] | Growth percent (TK-10) [%] | Growth percent (DU-145 [2]) [%] | further results
1 | O=C(O)c1c(Sc2ccc(Cl)cc2)c(O)nc2ccccc12 [Compound 2, 3-((4-Chlorophenyl)thio)-2-hydroxyquinoline-4-carboxylic acid] | > 15 | > 15 | 98.31 | 105.63 | 106.33 | 107.34 | 105.64 | 101.10 | 103.87 | 101.41 | 112.61 | 98.99 | 110.22 | 102.02 | 103.57 | 98.41 | 76.26 | 95.83 | 118.09 | 115.22 | Growth percent (EKVX): 89.47%; Growth percent (MDA-MB-231/ATCC): 95.70%; Growth percent (BT-549): 124.20%; Growth percent (MDA-MB-486): 104.57%
2 | CN1CCN(c2nc3ccccc3c3c(=O)c4cc(Cl)ccc4sc23)CC1 [Compound 8, 10-Chloro-6-(4-methylpiperazin-1-yl)-12H-thiochromeno[2,3-c]q uinolin-12-one] | 12.9 ± 0.26 | 7.18 ± 2.45 | 91.60 | 96.19 | 86.41 | 99.80 | 85.67 | 77.04 | 80.94 | 78.65 | 110.71 | 91.69 | 85.30 | 105.80 | 80.08 | 94.93 | 87.50 | 83.03 | 97.07 | 103.45 | Growth percent (SK-OV-3): 75.11%; Growth percent (A498): 79.33%; Growth percent (MDA-MB-231/ATCC): 57.30%; Growth percent (BT-549): 96.25%; Growth percent (MDA-MB-486): 102.02%
3 | O=c1c2cc(Cl)ccc2sc2c(N3CCN(c4ccccc4)CC3)nc3ccccc3c12 [Compound 12, 10-Chloro-6-(4-phenylpiperazin-1-yl)-12H-thiochromeno[2,3-c] quinolin-12-one] | > 15 | > 15 | 98.41 | 113.79 | 103.11 | 98.54 | 87.10 | 84.41 | 105.36 | 99.94 | 113.15 | 99.23 | 100.06 | 102.39 | 91.38 | 94.29 | 97.83 | 102.66 | 112.45 | 111.15 | Growth percent (SK-OV-3): 100.39%; Growth percent (A498): 81.04%; Growth percent (MDA-MB-231/ATCC): 94.34%; Growth percent (BT-549): 123.95%; Growth percent (MDA-MB-486): 86.34%
4 | O=c1c2ccc(Cl)cc2sc2c(Cl)nc3ccccc3c12 [Compound 3, 6,9-Dichloro-12H-thiochromeno[2,3-c]quinolin-12-one] | > 15 | > 15 | 93.12 | 99.34 | 89.02 | 104.74 | 83.41 | 100.12 | 102.27 | 99.73 | 111.27 | 90.26 | 89.02 | 100.64 | 96.06 | 87.91 | 94.31 | 95.92 | 108.56 | 114.27 | Growth percent (SK-OV-3): 101.32%; Growth percent (A498): 106.06%; Growth percent (MDA-MB-231/ATCC): 84.28%; Growth percent (BT-549): 110.01%; Growth percent (MDA-MB-486): 98.57%
